From ChEMBL document CHEMBL2010775, “Anti-proliferative effects of the novel ceramide analog (S)-2-(benzylideneamino)-3-hydroxy-N-tetrade-cylpropanamide in chemoresistant cancer” (2012)
Calls of active or inactive are those of the source. The rule behind the calls is not given here.

Columns and labels:
Homo sapiens [1] = species: Homo sapiens; test: Potentiation of doxorubicin-induced antiproliferative activity against human MCF-7TN-R cells after 24 hrs by MTT assay; format: functional, cell-based
Homo sapiens [2] = species: Homo sapiens; test: Potentiation of etoposide-induced antiproliferative activity against human MCF-7TN-R cells after 24 hrs by MTT assay; format: functional, cell-based
Homo sapiens [3] = species: Homo sapiens; test: Induction of apoptosis in human MCF-7TN-R cells assessed as decrease in viable cells after 48 hrs by DAPI staining method relative to control; format: functional, cell-based
MDA-MB-231 = test: Antiproliferative activity against human MDA-MB-231 cells assessed as decrease in Ki-67 staining after 48 hrs by immunofluorescence staining; format: functional; set-up: scale not given: the % may be the effect or the level left
MDA-MB-468 = test: Antiproliferative activity against human MDA-MB-468 cells assessed as decrease in Ki-67 staining after 48 hrs by immunofluorescence staining; format: functional; set-up: scale not given: the % may be the effect or the level left
[4] = Antiproliferative activity against human MCF-7TN-R cells assessed as decrease in Ki-67 staining after 48 hrs by immunofluorescence staining; format: functional; set-up: scale not given: the % may be the effect or the level left

| Structure (SMILES) | Activity (Homo sapiens [1]) | Activity (Homo sapiens [2]) | Activity (Homo sapiens [3]) | Activity (MDA-MB-231) [%] | Activity (MDA-MB-468) [%] | Activity [4] [%] |
| --- | --- | --- | --- | --- | --- | --- |
| CCCCCCCCCCCCCCNC(=O)[C@H](CO)/N=C/c1ccccc1 | Active | Active | Active | 74.6 | 25.19 | 19.28 |
| CCCCCCCCCCCCC/C=C/[C@@H](O)[C@H](CO)NC(=O)CCCCCCC | Active | Active | Active | 46.6 | 29.08 | 17.19 |
